In PMC11928584, “H105A peptide eye drops promote photoreceptor survival in murine and human models of retinal degeneration” (Communications Medicine, 2025):
Where a SMILES comes first, the peptide text is derived from it.

How the values were obtained:
[1] = system: retinal function of rd10 mice; test: Electroretinogram (scotopic a- and b-wave), rd10 mice; format: in vivo, mouse
Description: Electroretinogram (ERG) for rd10 and rd10/Serpinf1^-/- mice were dark-adapted overnight and recorded in both eyes of each animal using an Espion E2 system with ColorDome (Diagnosys LLC) with a heated surface. Briefly, pupils were dilated with 1% tropicamide (Akorn, NDC: 17478-101-12) for 10 min and mice were anesthetized with intraperitoneal injection of Zetamine™ (Ketamine hydrochloride injection, USP; VetOne, NDC 13985-584-10) at 92.5 mg/kg, and AnaSed® (xylazine injection, Akorn Pharmaceuticals, NDC 59399-110-20) at 5.5 mg/kg. Mice were placed on the heated surface and electrodes were placed in the mouth and a subdermal platinum needle electrode was placed in the back of the mouse to serve as ground. Responses were elicited with increasing light impulses with intensity from 0.0001 to 10 cd-seconds per meter squared (cd.s/m^2). Amplitudes for a-wave were measured from stimulus to the trough of the a-wave and b-wave amplitudes were measured from a-wave to b-wave trough or peak. The values from the a and b waves for both eyes were exported to Microsoft Excel to obtained amplitude values for each mouse.
Fig. 5 Effect of daily eyedrops of PEDF peptides on ERG a-wave and b-wave retinal function. a Illustration of the experimental timeline of peptide application. RE and LE refer to the right and left eyes, respectively. Representative ERG waveforms for rd10 (b) and rd10/Serpinf1^-/- (c) mice at P21 in response to a light flash (1 cd.s/m²). Amplitude (y-axis) is plotted against time in milliseconds (ms, x-axis). Treatments are indicated to the right of each plot and are color coded, with control wild type C57BL/6 J mice without peptide treatment shown in blue. A-wave and b-wave are indicated by arrows. Photoreceptor a-wave amplitudes. Averages of photoreceptor a-wave amplitudes for rd10 (d) and rd10/Serpinf1^-/- (e) mice as a function of light intensity (cd/s.m², x-axis). Responses of animals treated with 17-mer are shown in green, H105A in black, and vehicle (HBSS) in red. Wildtype responses are shown in blue. Bipolar cell b-wave amplitudes. Averages of bipolar cell b-wave amplitudes for rd10 (f) and rd10/Serpinf1^-/- (g) mice as a function of light intensity (cd/s.m², x-axis), with treatments as indicated in panels. The number of mice evaluated for the data shown in Panels d-g was five (n = 5) for each rd10, rd10/Serpinf1^-/- and wild type. Each data point represents the average ± SD of each genotype, analyzed by ANOVA with Dunnett’s multiple comparisons. Statistical significance between H105A and vehicle is indicated by ##p ≤ 0.01, ###p ≤ 0.001, ####p ≤ 0.0001, and between H105A and 17-mer by **p ≤ 0.01, ***p ≤ 0.001, ****p ≤ 0.0001.

[2] = Stability of peptide H105A against temperature (storage); format: physicochemical
Description: Lyophilized peptides were dissolved in sterile HBSS at 1 mg/ml and stored at −20 °C. Before the peptides were used, the peptide solution was brought to room temperature and subjected to centrifugation (Eppendorf, Centrifuge 5430 R) at 20,800 x g for 10 min at 4 °C to clear and separate particulate material. In case a precipitate was found, the pH of the solution was adjusted to neutral pH with either NaOH or HCl and all peptides were soluble. The concentration of peptide solutions was determined using spectrophotometry (NanoDrop, Thermo Fisher Scientific). The stability of peptide H105A against temperature was performed and summarized in Supplementary Table 2.
Supplementary Table 2. Stability of 17- mer[H105A] peptide.
Concentration (mg/mL) Store Concentration (mg/mL)
*FT, Freeze and thaw cycles daily

[3] = eye drops every other day P15-P23, ERG at P25

Structure (SMILES): CC[C@H](C)[C@H](NC(=O)[C@H](CC(C)C)NC(=O)[C@H](CC(=O)O)NC(=O)[C@H](Cc1ccc(O)cc1)NC(=O)[C@H](Cc1ccc(O)cc1)NC(=O)[C@H](CC(C)C)NC(=O)[C@H](C)NC(=O)[C@H](CCCNC(=N)N)NC(=O)[C@H](C)NC(=O)[C@@H](NC(=O)[C@@H](NC(=O)[C@H](CO)NC(=O)[C@H](CCC(=O)O)NC(=O)[C@@H](NC(=O)[C@H](CCCNC(=N)N)NC(=O)[C@@H](N)CCC(N)=O)[C@@H](C)O)[C@@H](C)CC)[C@@H](C)CC)C(=O)N[C@@H](CO)C(=O)O [H105A] (H-QRTESIIARALYYDLIS-OH)
- ERG response to low intensity light ([1]; daily eye drops 5 µl of 1 mg/ml P15-P24, ERG at P25): improved rod photoreceptor function
- ERG a-wave [1, 3]: an improvement in a-wave of ERG
- ERG b-wave [1, 3]: no significant effect
- function of rd10 photoreceptors ([1]; eye drops every other day, endpoint extended to P25): improved the function of rd10 photoreceptors
- Concentration, Day 8 ([2]; sample 1, stored at RT): 1080 µg/mL
- Concentration, Day 8 ([2]; sample 2, stored at 4°C): 1160 µg/mL
- Concentration, Day 8 ([2]; sample 3, stored at -20°C): 1080 µg/mL
- Concentration, Day 8 ([2]; sample 4, stored at -20°C [FT], freeze and thaw cycles daily): 1280 µg/mL
